In one series the test system is NESTIN expression in GB5. Put plainly: NESTIN expression by immunofluorescence in GB5. Type of series: cell-based, human. To be noted: GB5, seven days. The method, then: (§1) FIG. 2: Compounds 9a-b and 18a-b effect on stemness marker expression, clonal expansion and mitosis in GB5 cells. (A) NESTIN expression was assessed by immunofluorescence in GB5 treated with increasing amount of Compounds 9a-b and 18a. The number of NESTIN positive cells was counted for each treatment and express as percentage of the control (100%). The results are the meaning of at least two separate experiments. […] (C) Clonal expansion analysis was performed with GB5 cells as described in the material and method section. Two and three weeks later, the number of spheroids is counted and reported as percentage of the initial number of cells in the well. The results are the meaning of a minimum of two separate experiments. (D) The number of mitosis in the culture was determined by the detection of the number of cells positive for histone H3 phosphorylated on ser-10 (H3-ser10). H3-ser10 expression was assessed by immunofluorescence in GB5 treated with increasing amount of Compounds 9a-b and 18a. The number of positive cells was counted for each treatment and express as percentage of the control (100%). The results are the meaning of at least two separate experiments.
(§2) III—Immunofluorescence assay: TG6 and GB5 were seeded at 2000 cells/well in 24 wells plate in NS34+ alone or containing 5, 7.5, 10, 12.5, 15, 20 and 25 uM of Compounds 9a-b and 18a-b. Cultures were incubated 4 days and the cells were fixed with 4% paraformaldehyde for 10 min at room temperature then washed with PBS. Cells were then incubated with ammonium chloride at 20 mM 5 min at room temperature and washed 5 times with PBS. Blocking and hybridization were realized in PBS containing 10% FCS and 0.1% Triton X100. Anti-Nestin and anti-H3Phospho serine 10 antibodies were incubated 2 hours at room temperature then washed with PBS. Fluorescence coupled secondary antibodies and Hoechst 33342 nuclei counterstaining reagent were hybridized one hour at room temperature. Cells were mounted with anti-fading agent then imaged, counted and quantified using fluorescent microscopy (TiE Nikon) and NiS software (Nikon).
Patient derived GSC (GB5) have been treated during seven days, with growing concentrations of compounds that have been capable of inducing changes of GSC morphology. To assess the consequence on stemness maintenance, we observed, by immunofluorescence, the expression of stemness and progenitor cells such as the NESTIN protein. […] The strongest effect has been obtained with Compounds 9a treatment (IC50=10 uM).

The test system of series [1] is GB5 cells. Description: TMZ assay: GSC sensitivity to Temozolomide (XTT). Type of series: cell-based, human. Conditions: three days. As for the experimental part: FIG. 5: Sensitivity to TMZ was assessed by comparing the percentage of dead cells between TMZ treated GB5 and TMZ treated GB5 in combination with Compound 9a. GB5 cells have been treated with 400 uM TMZ alone or in combination with growing concentrations of Compounds 9a-b and 18b. The results are the meaning of at least two separate experiments.
IV—TMZ assay: TG6 and GB5 were seeded at 2000 cells/well in 96 wells plate in NS34+ or treated with medium containing 400 uM of TMZ alone or mixed with 10, 25 and 50 uM of Compounds 9a-b and 18a-b. Cultures were incubated 4 days and the cell viability has been evaluated by XTT assays and a count of living and dead cells with trypan blue staining.
Temozolomide is the chemotherapy of reference for GBM treatment. In order to assess whether the compounds might sensitize GSC to TMZ, TMZ (400 uM) pretreated GB5 cells were incubated with 10, 25 and 50 uM of Compounds 9a-b and 18b. Three days later the experiment is stop and the cells were subjected to an XTT assays. […] Cell toxicity was confirmed by trypan blue staining.

For series [2], the system named is GB5 cells. Description: Mitosis: cells positive for histone H3 phosphorylated on ser-10, GB5. Conditions: GB5, H3-ser10 positive cells. Type of series: cell-based, human. The method, then: as §1, §2
It was further investigated the effects of selected compounds on GSC clonal expansion as well as their capacity of mitosis (FIGS. 2B and C). Compounds 9a-b and 18a treatment altered GSC clonal expansion and mitosis. The most efficient inhibition of clonal expansion was provided by Compound 9a treatment (IC50<10 uM) while both Compounds 9a-b were the most efficient for mitosis inhibition (IC50<10 uM) (FIGS. 2C and D).

Series [3] deals with human endothelial cells (HUVEC). Description: XTT toxicity assay on human endothelial cells. The format is cell-based. As for the experimental part: FIG. 4: Determination of compound toxicity on GSC and normal human cells. (A) GB5 were incubated with growing concentration of Compounds 9a-b and 18a. (B) human normal neural stem cell (NNSC), human normal kidney cells (NHEK), human normal hepatocytes (HEPRG) and (C) human endothelial cells (HUVEC) were treated with growing concentration of Compound 9a. 7 days later, the cells were subjected to an XTT assays as described in the method section. The results are the meaning of at least two separate experiments. Cell death was confirmed by trypan blue staining (not shown).
V—Toxicity tests: NNSC, GB5, TG6, HEK293, and HepaRG, HUVEC were seeded at 2000 cells/well in 96 wells plate in their respective culture mediums alone or containing growing concentration from 10 to 500 uM of Compounds 9a-b. Cultures were incubated 4 days and the cellular toxicity has been evaluated by XTT assays. Cell viability has been also assessed by counting living and dead cells with trypan blue staining.
XTT assays allows, through cell metabolism measurement, to determine a cytotoxic/cytostatic effects. Compounds 9a-b and 18a were tested for their eventual toxicity by XTT assays as described in the material and method section. At the working concentrations 10 to 25 uM, the compounds are not toxic for GSC (FIG. 4A). […]
For orientation: Tetrazolium assays rely on reduction of a dye to a coloured formazan, in cell work by metabolically active cells.

A value given as a limit tells only on which side of the number the result lay.

Usually IC50 stands for the midpoint of a concentration-inhibition curve. As for `NCCCCNCCCNC(=O)c1csc(-c2csc(CCNC(=O)CCc3cn(CC4OC(OC5C(O)C(N)CC(N)C5OC5OC(CN)C(O)C(O)C5N)C(O)C4OC4OC(CN)C(O)C(O)C4N)nn3)n2)n1` (centres unmarked) [Compound 9a, N-(3-((4-Aminobutyl)amino)propyl)-2′-(2-(3-(1-methyl-1H-1,2,3-triazol-4-yl)propanamido)ethyl)-[2,4′-bithiazole]-4-carboxamide-neomycin], the NESTIN expression result in the series on NESTIN expression in GB5 (growing concentrations) is on record as “drop in NESTIN expression”. Also, the IC50 is 10 µM in the series with NESTIN expression in GB5 (Homo sapiens, 168 h) and < 10 µM with GB5 cells [2] (Homo sapiens, read-out: mitosis inhibition IC50). Also, the “increase of TMZ sensitivity” value in the series on GB5 cells [1] (GB5, TMZ 400 uM plus compound at 10 uM) came out at 2 fold. Moreover, in the series on GB5 cells [1] (GB5, TMZ 400 uM plus compound at 50 uM), the “increase of TMZ sensitivity, maximal effect” value is listed as 2.9 fold. In the series with GB5 cells [2], the GSC mitosis result is given as “altered”. Further, the “toxicity (XTT)” value is on record as “toxic” in series [3] (100 uM and above); “not toxic” in series [3] (between 10 to 50 uM).
